Test results published in PubChem BioAssay AID248 (DTP/NCI, 2004).
Where “and” joins values, the source holds several entries; their conditions need not be identical. Identical values can stand only once. Inconclusive results and toxic doses are left out. No stated cut-off is given here; in the data, active means T/C of 150% or more; inactive means T/C below 125%.

Tested on: L1210 leukemia ip in BDF1 mice, survival T/C
Assay: NCI In Vivo Anticancer Drug Screen. Data for tumor model L1210 Leukemia (intraperitoneal) in B6D2F1 (BDF1) mice
Settings: endpoint: mean survival time, higher = longer survival
How it was run: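 Tumor cells were implanted, animals were treated, and survival was followed. The result divides the treated measurement by the vehicle-control measurement.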

[1] = dose: 100.0 mg/kg/injection, schedule: Q04DX003 (ip), vehicle: saline
[2] = dose: 200.0 mg/kg/injection, schedule: Q04DX003 (ip), vehicle: saline
[3] = dose: 100.0 mg/kg/injection, schedule: Q04DX003 (ip), vehicle: Klucel (hydroxypropylcellulose) (HPC)
[4] = dose: 200.0 mg/kg/injection, schedule: Q04DX003 (ip), vehicle: Klucel (hydroxypropylcellulose) (HPC)
[5] = dose: 400.0 mg/kg/injection, schedule: Q04DX003 (ip), vehicle: Klucel (hydroxypropylcellulose) (HPC)
[6] = dose: 100.0 mg/kg/injection, schedule: Q01DX001 (ip), vehicle: saline
[7] = dose: 200.0 mg/kg/injection, schedule: Q01DX001 (ip), vehicle: saline
[8] = dose: 400.0 mg/kg/injection, schedule: Q01DX001 (ip), vehicle: saline

Measured: T/C

CC(=O)[C@H]1CC[C@H]2[C@@H]3C[C@H](C)C4=CC(=O)CC[C@]4(C)[C@H]3C(=O)C[C@]12C
inactive: dose: 20.0 mg/kg/injection, schedule: Q01DX009 (ip), vehicle: carboxymethylcellulose (CMC) 93 % of control | dose: 25.0 mg/kg/injection, schedule: Q01DX015 (sc), vehicle: steriod suspending solution 104 % of control | dose: 32.0 mg/kg/injection, schedule: Q03HX008 (ip), vehicle: Klucel (hydroxypropylcellulose) (HPC) 93 % of control | dose: 32.0 mg/kg/injection, schedule: Q03HX016 (ip), vehicle: Klucel (hydroxypropylcellulose) (HPC) 92 % of control | dose: 32.0 mg/kg/injection, schedule: Q03HX024 (ip), vehicle: Klucel (hydroxypropylcellulose) (HPC) 97 % of control | dose: 40.0 mg/kg/injection, schedule: Q01DX009 (ip), vehicle: carboxymethylcellulose (CMC) 96 % of control | dose: 50.0 mg/kg/injection, schedule: Q01DX015 (sc), vehicle: steriod suspending solution 96 % of control | dose: 64.0 mg/kg/injection, schedule: Q03HX008 (ip), vehicle: Klucel (hydroxypropylcellulose) (HPC) 92 % of control | dose: 64.0 mg/kg/injection, schedule: Q03HX016 (ip), vehicle: Klucel (hydroxypropylcellulose) (HPC) 94 % of control | dose: 64.0 mg/kg/injection, schedule: Q03HX024 (ip), vehicle: Klucel (hydroxypropylcellulose) (HPC) 93 % of control | dose: 67.0 mg/kg/injection, schedule: Q01DX Z (sc), vehicle: steriod suspending solution 103 % of control | dose: 80.0 mg/kg/injection, schedule: Q01DX Z (sc), vehicle: steriod suspending solution 106 % of control | dose: 100.0 mg/kg/injection, schedule: Q01DX015 (sc), vehicle: steriod suspending solution 98 % of control | dose: 100.0 mg/kg/injection, schedule: Q01DX Z (sc), vehicle: steriod suspending solution 109 % of control | dose: 120.0 mg/kg/injection, schedule: Q01DX Z (sc), vehicle: steriod suspending solution 101 % of control | dose: 123.0 mg/kg/injection, schedule: Q01DX009 (ip), vehicle: Klucel (hydroxypropylcellulose) (HPC) 100 % of control | dose: 123.0 mg/kg/injection, schedule: Q03HX008 (ip), vehicle: Klucel (hydroxypropylcellulose) (HPC) 95 % of control | dose: 123.0 mg/kg/injection, schedule: Q03HX016 (ip), vehicle: Klucel (hydroxypropylcellulose) (HPC) 93 % of control | dose: 123.0 mg/kg/injection, schedule: Q03HX024 (ip), vehicle: Klucel (hydroxypropylcellulose) (HPC) 98 % of control | dose: 150.0 mg/kg/injection, schedule: Q01DX Z (sc), vehicle: steriod suspending solution 106 % of control | dose: 160.0 mg/kg/injection, schedule: Q01DX009 (ip), vehicle: carboxymethylcellulose (CMC) 93 % of control | dose: 180.0 mg/kg/injection, schedule: Q01DX Z (sc), vehicle: steriod suspending solution 97 % of control | dose: 200.0 mg/kg/injection, schedule: Q01DX015 (sc), vehicle: steriod suspending solution 102 % of control and 104 % of control | dose: 220.0 mg/kg/injection, schedule: Q01DX Z (sc), vehicle: steriod suspending solution 97 % of control | dose: 255.0 mg/kg/injection, schedule: Q01DX001 (ip), vehicle: Klucel (hydroxypropylcellulose) (HPC) 96 % of control | dose: 255.0 mg/kg/injection, schedule: Q01DX009 (ip), vehicle: Klucel (hydroxypropylcellulose) (HPC) 103 % of control | dose: 255.0 mg/kg/injection, schedule: Q04DX003 (ip), vehicle: Klucel (hydroxypropylcellulose) (HPC) 97 % of control | dose: 255.0 mg/kg/injection, schedule: Q08DX002 (ip), vehicle: Klucel (hydroxypropylcellulose) (HPC) 104 % of control | dose: 270.0 mg/kg/injection, schedule: Q01DX Z (sc), vehicle: steriod suspending solution 89 % of control | dose: 320.0 mg/kg/injection, schedule: Q01DX009 (ip), vehicle: carboxymethylcellulose (CMC) 87 % of control | dose: 330.0 mg/kg/injection, schedule: Q01DX Z (sc), vehicle: steriod suspending solution 100 % of control | dose: 400.0 mg/kg/injection, schedule: Q01DX015 (sc), vehicle: steriod suspending solution 102 % of control | dose: 495.0 mg/kg/injection, schedule: Q01DX Z (sc), vehicle: steriod suspending solution 94 % of control | dose: 512.0 mg/kg/injection, schedule: Q08DX002 (ip), vehicle: Klucel (hydroxypropylcellulose) (HPC) 103 % of control | dose: 640.0 mg/kg/injection, schedule: Q01DX009 (ip), vehicle: carboxymethylcellulose (CMC) 92 % of control

CC(=O)OCCNc1ccc([N+](=O)[O-])cc1[N+](=O)[O-]
inactive: dose: 100.0 mg/kg/injection, schedule: Q01DX009 (ip), vehicle: acetone 109 % of control | [1] 101 % of control | dose: 200.0 mg/kg/injection, schedule: Q01DX009 (ip), vehicle: acetone 97 % of control | [2] 103 % of control | dose: 400.0 mg/kg/injection, schedule: Q01DX009 (ip), vehicle: acetone 112 % of control | dose: 400.0 mg/kg/injection, schedule: Q04DX003 (ip), vehicle: saline 95 % of control

CSC(N)=NC#N
inactive: dose: 100.0 mg/kg/injection, schedule: Q04DX002 (ip), vehicle: other 111 % of control | dose: 200.0 mg/kg/injection, schedule: Q04DX002 (ip), vehicle: other 93 % of control | dose: 400.0 mg/kg/injection, schedule: Q04DX002 (ip), vehicle: other 107 % of control

O=C1C=C(Cl)C(=O)c2ccccc21
inactive: dose: 9.38 mg/kg/injection, schedule: Q01DX001 (ip), vehicle: steriod suspending solution 91 % of control

O=C(NCCCl)Nc1cccc2cc3ccccc3cc12
inactive: dose: 100.0 mg/kg/injection, schedule: Q01DX009 (ip), vehicle: Klucel (hydroxypropylcellulose) (HPC) 95 % of control | [3] 96 % of control | dose: 200.0 mg/kg/injection, schedule: Q01DX009 (ip), vehicle: Klucel (hydroxypropylcellulose) (HPC) 103 % of control | [4] 96 % of control | dose: 400.0 mg/kg/injection, schedule: Q01DX009 (ip), vehicle: Klucel (hydroxypropylcellulose) (HPC) 95 % of control | [5] 102 % of control

Cc1cc(C)c(C(=O)CC(=O)c2cccnc2)c(C)c1
inactive: dose: 25.0 mg/kg/injection, schedule: Q01DX001 (ip), vehicle: saline 102 % of control | dose: 50.0 mg/kg/injection, schedule: Q01DX001 (ip), vehicle: saline 101 % of control and 104 % of control | dose: 50.0 mg/kg/injection, schedule: Q04DX003 (ip), vehicle: saline 97 % of control | [6] 102 % of control and 103 % of control | [1] 97 % of control | [7] 97 % of control and 98 % of control | [2] 98 % of control | [8] 103 % of control

CC(C)(C)CC(C)(C)CC(C)(C)NCCCN
inactive: dose: 12.5 mg/kg/injection, schedule: Q01DX009 (ip), vehicle: saline with Tween-80 102 % of control | dose: 25.0 mg/kg/injection, schedule: Q01DX009 (ip), vehicle: saline with Tween-80 93 % of control | dose: 25.0 mg/kg/injection, schedule: Q04DX003 (ip), vehicle: saline with Tween-80 90 % of control | dose: 50.0 mg/kg/injection, schedule: Q04DX003 (ip), vehicle: saline with Tween-80 97 % of control | dose: 100.0 mg/kg/injection, schedule: Q04DX003 (ip), vehicle: saline with Tween-80 96 % of control

CC(CC(=O)O)c1ccc(C(C)(C)C)cc1 (stereo not drawn)
inactive: [3] 95 % of control | [4] 107 % of control | [5] 98 % of control

COc1ccc(-c2cnc(=S)[nH]c2N)cc1
inactive: dose: 100.0 mg/kg/injection, schedule: Q01DX001 (ip), vehicle: Klucel (hydroxypropylcellulose) (HPC) 116 % of control | dose: 200.0 mg/kg/injection, schedule: Q01DX001 (ip), vehicle: Klucel (hydroxypropylcellulose) (HPC) 121 % of control | dose: 400.0 mg/kg/injection, schedule: Q01DX001 (ip), vehicle: Klucel (hydroxypropylcellulose) (HPC) 119 % of control

c1cc2nnc3cccc4nnc(c1)c2c34
inactive: [6] 102 % of control | [7] 107 % of control | [8] 103 % of control
